Measured values published in publication PMC7413254 (Nature Communications, 2020).

Columns and labels:
Format in all cases: cell-based
PfCRT^Dd2 [1] = target: T1, PfCRT^Dd2 (Plasmodium falciparum, UniProt Q9N623, A220S/I356T/K76T/M74I/N326S/N75E/Q271E/R371I); assay: [3H]CQ uptake into Xenopus oocytes, cis-inhibition by unlabelled solute; settings: PfCRTDd2 oocytes, background [3H]CQ accumulation subtracted, normalised to oocyte type control
Outline: (§1)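 Transport runs from the acidic bath into the cytosol, analogous to PfCRT-mediated efflux out of the vacuole. Non-expressing oocytes act as background.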

PfCRT^Ecu1110 [2] = target: T2, PfCRT^Ecu1110 (Plasmodium falciparum, UniProt Q9N623, A220S/I356L/K76T/N326D); assay: as above; settings: for PfCRT-mediated [3H]CQ transport, cis-inhibition (% PfCRTEcu1110 control): PfCRTEcu1110 oocytes, background [3H]CQ accumulation subtracted, normalised to oocyte type control; for [3H]CQ transport (% PfCRTEcu1110 control), cis-inhibition, PfCRTEcu1110: PfCRT-mediated component (background subtracted), sheet title says normalised to PfCRTDd2 control, mean ± SEM, SEM
T2 sequence (Q9N623 whole entry A220S/I356L/K76T/N326D): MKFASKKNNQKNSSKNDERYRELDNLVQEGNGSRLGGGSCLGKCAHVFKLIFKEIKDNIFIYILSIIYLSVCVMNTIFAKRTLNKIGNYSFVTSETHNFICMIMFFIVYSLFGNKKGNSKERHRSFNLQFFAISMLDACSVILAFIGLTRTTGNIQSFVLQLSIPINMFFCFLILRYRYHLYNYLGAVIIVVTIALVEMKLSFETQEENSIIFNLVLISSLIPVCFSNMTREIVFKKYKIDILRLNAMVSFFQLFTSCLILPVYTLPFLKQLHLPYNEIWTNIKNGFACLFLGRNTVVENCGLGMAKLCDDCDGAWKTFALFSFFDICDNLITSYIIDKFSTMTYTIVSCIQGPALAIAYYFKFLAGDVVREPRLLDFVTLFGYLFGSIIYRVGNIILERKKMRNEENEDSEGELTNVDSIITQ
Outline: as §1

PfCRT^Dd2 [3] = target: T1, PfCRT^Dd2; assay: cell-based; settings: for PfCRT-mediated [3H]CQ transport, trans-stimulation (% PfCRTDd2 control): PfCRTDd2 oocytes, normalised to oocyte type control; for [3H]CQ transport (% PfCRTDd2 control), trans-stimulation, PfCRTDd2: PfCRT-mediated component (background subtracted), mean ± SEM, SEM
Outline: (§2)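 Oocytes (ten per treatment, ≥4 independent frogs/days) were preloaded by injecting VF-6 in 25 nL ND96 at pH 5.0, 5.5, 6.0 or 7.0, or Na^+-free choline buffer, then uptake run 1.5 h, 27.5 °C, ND96 pH 5.5 by default. Internal concentrations assumed ~400 nL oocyte volume.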

PfCRT^3D7 = PfCRT^3D7 (Plasmodium falciparum, UniProt Q8IBZ9); assay: cell-based; settings: PfCRT3D7 oocytes, normalised to oocyte type control
Sequence of PfCRT^3D7 (Q8IBZ9 59-398): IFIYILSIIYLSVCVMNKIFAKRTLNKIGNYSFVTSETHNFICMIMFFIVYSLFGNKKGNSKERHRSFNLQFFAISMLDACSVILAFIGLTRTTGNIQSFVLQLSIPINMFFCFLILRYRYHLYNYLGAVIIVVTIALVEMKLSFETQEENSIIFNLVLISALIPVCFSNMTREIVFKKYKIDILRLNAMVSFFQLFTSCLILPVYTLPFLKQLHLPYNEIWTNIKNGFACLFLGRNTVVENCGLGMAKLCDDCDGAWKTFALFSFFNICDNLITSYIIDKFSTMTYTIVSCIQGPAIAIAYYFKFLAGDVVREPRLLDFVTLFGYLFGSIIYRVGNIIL
Outline: as §2

PfCRT^Ecu1110 [4] = target: T2, PfCRT^Ecu1110; assay: cell-based; settings: for PfCRT-mediated [3H]CQ transport, trans-stimulation (% PfCRTEcu1110 control): PfCRTEcu1110 oocytes, normalised to oocyte type control; for [3H]CQ transport (% PfCRTDd2 control), trans-stimulation, PfCRTEcu1110: PfCRT-mediated component (background subtracted), sheet title says normalised to PfCRTDd2 control, mean ± SEM, SEM
Outline: as §2

[5] = [test solute]i = 5 mM (intracellular)
[6] = [test solute]i = 45 mM (intracellular; 30 mM for some solutes due to solubility)
[7] = [test solute]i = 5 mM (injected)
[8] = [test solute]i = 45 mM (30 mM for some solutes due to solubility)

T1 sequence (Q9N623 whole entry A220S/I356T/K76T/M74I/N326S/N75E/Q271E/R371I): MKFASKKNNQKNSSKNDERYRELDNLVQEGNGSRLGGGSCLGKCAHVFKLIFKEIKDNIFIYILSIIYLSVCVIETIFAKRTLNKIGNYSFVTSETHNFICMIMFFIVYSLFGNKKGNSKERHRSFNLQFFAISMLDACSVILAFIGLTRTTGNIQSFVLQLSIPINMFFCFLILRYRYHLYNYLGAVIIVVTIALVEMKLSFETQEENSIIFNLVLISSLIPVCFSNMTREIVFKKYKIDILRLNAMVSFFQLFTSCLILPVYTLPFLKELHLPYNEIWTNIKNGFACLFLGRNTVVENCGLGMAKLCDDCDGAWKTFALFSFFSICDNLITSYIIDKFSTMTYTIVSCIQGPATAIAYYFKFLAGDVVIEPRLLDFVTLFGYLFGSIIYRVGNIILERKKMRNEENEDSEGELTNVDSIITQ

Substance | PfCRT-mediated [3H]CQ transport, cis-inhibition (% PfCRTDd2 control) (PfCRT^Dd2 [1]; [test solute] = 0.5 mM) | PfCRT-mediated [3H]CQ transport, cis-inhibition (% PfCRTDd2 control) (PfCRT^Dd2 [1]; [test solute] = 1 mM) | PfCRT-mediated [3H]CQ transport, cis-inhibition (% PfCRTDd2 control) (PfCRT^Dd2 [1]; [test solute] = 2 mM) | PfCRT-mediated [3H]CQ transport, cis-inhibition (% PfCRTEcu1110 control) (PfCRT^Ecu1110 [2]; [test solute] = 0.5 mM) | PfCRT-mediated [3H]CQ transport, cis-inhibition (% PfCRTEcu1110 control) (PfCRT^Ecu1110 [2]; [test solute] = 1 mM) | PfCRT-mediated [3H]CQ transport, cis-inhibition (% PfCRTEcu1110 control) (PfCRT^Ecu1110 [2]; [test solute] = 2 mM) | [3H]CQ transport (% PfCRTEcu1110 control), cis-inhibition, PfCRTEcu1110 (PfCRT^Ecu1110 [2]; [test solute] = 0.5 mM) | [3H]CQ transport (% PfCRTEcu1110 control), cis-inhibition, PfCRTEcu1110 (PfCRT^Ecu1110 [2]; [test solute] = 2 mM) | PfCRT-mediated [3H]CQ transport, trans-stimulation (% PfCRTDd2 control) (PfCRT^Dd2 [3]; [5]) | PfCRT-mediated [3H]CQ transport, trans-stimulation (% PfCRTDd2 control) (PfCRT^Dd2 [3]; [6]) | [3H]CQ transport (% PfCRTDd2 control), trans-stimulation, PfCRTDd2 (PfCRT^Dd2 [3]; [7]) | [3H]CQ transport (% PfCRTDd2 control), trans-stimulation, PfCRTDd2 (PfCRT^Dd2 [3]; [8]) | PfCRT-mediated [3H]CQ transport, trans-stimulation (% PfCRT3D7 control) (PfCRT^3D7; [5]) | PfCRT-mediated [3H]CQ transport, trans-stimulation (% PfCRT3D7 control) (PfCRT^3D7; [6]) | PfCRT-mediated [3H]CQ transport, trans-stimulation (% PfCRTEcu1110 control) (PfCRT^Ecu1110 [4]; [5]) | PfCRT-mediated [3H]CQ transport, trans-stimulation (% PfCRTEcu1110 control) (PfCRT^Ecu1110 [4]; [6]) | [3H]CQ transport (% PfCRTDd2 control), trans-stimulation, PfCRTEcu1110 (PfCRT^Ecu1110 [4]; [7]) | [3H]CQ transport (% PfCRTDd2 control), trans-stimulation, PfCRTEcu1110 (PfCRT^Ecu1110 [4]; [8]) | [3H]CQ transport (% PfCRTEcu1110 control), cis-inhibition, PfCRTEcu1110 (PfCRT^Ecu1110 [2]; [test solute] = 1 mM)
VHLT [VT-4] | 51 ± 2.0 % PfCRTDd2 control | 39 ± 2.8 % PfCRTDd2 control | 16 ± 0.4 % PfCRTDd2 control | 56 ± 4.1 % PfCRTEcu1110 control | 39 ± 4.1 % PfCRTEcu1110 control | 27 ± 1.4 % PfCRTEcu1110 control | 18 ± 0.3 % PfCRTEcu1110 control | 9.0 ± 0.2 % PfCRTEcu1110 control | 97 ± 4.6 % PfCRTDd2 control | 98 ± 3.2 % PfCRTDd2 control | 97 ± 4.6 % PfCRTDd2 control | 98 ± 3.2 % PfCRTDd2 control | 97 ± 3.2 % PfCRT3D7 control | 95 ± 4.7 % PfCRT3D7 control | 99 ± 3.2 % PfCRTEcu1110 control | 97 ± 3.6 % PfCRTEcu1110 control | 30 ± 1.3 % PfCRTEcu1110 control | 29 ± 1.5 % PfCRTEcu1110 control | 
VHLTPEEK [VK-8] | 69 ± 3.1 % PfCRTDd2 control | 63 ± 5.2 % PfCRTDd2 control | 25 ± 0.3 % PfCRTDd2 control | 64 ± 2.7 % PfCRTEcu1110 control | 49 ± 3.1 % PfCRTEcu1110 control | 41 ± 2.3 % PfCRTEcu1110 control |  |  | 100 ± 3.4 % PfCRTDd2 control | 98 ± 2.3 % PfCRTDd2 control |  |  | 132 ± 3.2 % PfCRT3D7 control | 166 ± 4.2 % PfCRT3D7 control | 98 ± 2.9 % PfCRTEcu1110 control | 100 ± 4.2 % PfCRTEcu1110 control |  |  | 
VLSPAD [VD-6] | 47 ± 1.8 % PfCRTDd2 control | 28 ± 1.1 % PfCRTDd2 control | 29 ± 1.0 % PfCRTDd2 control | 58 ± 3.5 % PfCRTEcu1110 control | 48 ± 3.2 % PfCRTEcu1110 control | 39 ± 0.4 % PfCRTEcu1110 control |  | 12 ± 0.01 % PfCRTEcu1110 control | 101 ± 3.6 % PfCRTDd2 control | 98 ± 3.3 % PfCRTDd2 control | 101 ± 3.6 % PfCRTDd2 control | 98 ± 3.3 % PfCRTDd2 control | 97 ± 4.2 % PfCRT3D7 control | 95 ± 4.1 % PfCRT3D7 control | 98 ± 3.2 % PfCRTEcu1110 control | 98 ± 3.3 % PfCRTEcu1110 control | 30 ± 1.3 % PfCRTEcu1110 control | 30 ± 1.4 % PfCRTEcu1110 control | 
VVYPWTQR [VR-8] | 40 ± 3.2 % PfCRTDd2 control | 22 ± 1.1 % PfCRTDd2 control | 11 ± 0.8 % PfCRTDd2 control | 42 ± 2.6 % PfCRTEcu1110 control | 32 ± 1.9 % PfCRTEcu1110 control | 21 ± 1.4 % PfCRTEcu1110 control |  |  | 96 ± 1.4 % PfCRTDd2 control | 95 ± 1.5 % PfCRTDd2 control |  |  | 96 ± 2.8 % PfCRT3D7 control | 98 ± 2.9 % PfCRT3D7 control | 97 ± 1.8 % PfCRTEcu1110 control | 98 ± 3.7 % PfCRTEcu1110 control |  |  | 
YIGSR [YR-5] | 73 ± 3.9 % PfCRTDd2 control | 58 ± 3.1 % PfCRTDd2 control | 61 ± 2.9 % PfCRTDd2 control | 71 ± 1.6 % PfCRTEcu1110 control | 55 ± 1.4 % PfCRTEcu1110 control | 49 ± 2.4 % PfCRTEcu1110 control | 22 ± 0.1 % PfCRTEcu1110 control | 15 ± 0.1 % PfCRTEcu1110 control | 94 ± 4.6 % PfCRTDd2 control | 96 ± 4.1 % PfCRTDd2 control | 94 ± 4.6 % PfCRTDd2 control | 96 ± 4.1 % PfCRTDd2 control | 98 ± 2.6 % PfCRT3D7 control | 94 ± 2.1 % PfCRT3D7 control | 98 ± 4.2 % PfCRTEcu1110 control | 96 ± 3.5 % PfCRTEcu1110 control | 30 ± 1.7 % PfCRTEcu1110 control | 29 ± 1.3 % PfCRTEcu1110 control | 17 ± 0.4 % PfCRTEcu1110 control
